Measurements published in PubChem BioAssay AID248 (DTP/NCI, 2004).
Inconclusive results and toxic doses are left out. No stated cut-off is given here; in the data, active means T/C of 150% or more; inactive means T/C below 125%.

System: L1210 leukemia ip in BDF1 mice, survival T/C
Experiment: NCI In Vivo Anticancer Drug Screen. Data for tumor model L1210 Leukemia (intraperitoneal) in B6D2F1 (BDF1) mice
Settings: endpoint: mean survival time, higher = longer survival
How it was run: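 Tumor cells were implanted, animals were treated, and survival was followed. The result divides the treated measurement by the vehicle-control measurement.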

[1] = dose: 25.0 mg/kg/injection, schedule: Q01DX009 (ip), vehicle: Klucel (hydroxypropylcellulose) (HPC)
[2] = dose: 50.0 mg/kg/injection, schedule: Q01DX009 (ip), vehicle: Klucel (hydroxypropylcellulose) (HPC)
[3] = dose: 100.0 mg/kg/injection, schedule: Q01DX009 (ip), vehicle: Klucel (hydroxypropylcellulose) (HPC)
[4] = dose: 200.0 mg/kg/injection, schedule: Q01DX009 (ip), vehicle: Klucel (hydroxypropylcellulose) (HPC)
[5] = dose: 400.0 mg/kg/injection, schedule: Q01DX009 (ip), vehicle: Klucel (hydroxypropylcellulose) (HPC)
[6] = dose: 100.0 mg/kg/injection, schedule: Q01DX001 (ip), vehicle: carboxymethylcellulose (CMC)
[7] = dose: 200.0 mg/kg/injection, schedule: Q01DX001 (ip), vehicle: carboxymethylcellulose (CMC)
[8] = dose: 400.0 mg/kg/injection, schedule: Q01DX001 (ip), vehicle: carboxymethylcellulose (CMC)
[9] = dose: 100.0 mg/kg/injection, schedule: Q04DX003 (ip), vehicle: saline
[10] = dose: 200.0 mg/kg/injection, schedule: Q04DX003 (ip), vehicle: saline
[11] = dose: 100.0 mg/kg/injection, schedule: Q01DX009 (ip), vehicle: saline with Tween-80
[12] = dose: 100.0 mg/kg/injection, schedule: Q04DX003 (ip), vehicle: saline with Tween-80
[13] = dose: 200.0 mg/kg/injection, schedule: Q01DX009 (ip), vehicle: saline with Tween-80
[14] = dose: 200.0 mg/kg/injection, schedule: Q04DX003 (ip), vehicle: saline with Tween-80
[15] = dose: 400.0 mg/kg/injection, schedule: Q01DX009 (ip), vehicle: saline with Tween-80
[16] = dose: 400.0 mg/kg/injection, schedule: Q04DX003 (ip), vehicle: saline with Tween-80

Measured: T/C

Cc1cc(=O)[nH]c(NC(C)C(=O)O)n1 (configuration not stated)
inactive: dose: 12.5 mg/kg/injection, schedule: Q04DX003 (ip), vehicle: saline 101 % of control | dose: 25.0 mg/kg/injection, schedule: Q04DX003 (ip), vehicle: saline 101 % of control | dose: 50.0 mg/kg/injection, schedule: Q04DX003 (ip), vehicle: saline 101 % of control

O=C1Cc2ccccc2CNN1
inactive: dose: 100.0 mg/kg/injection, schedule: Q01DX001 (ip), vehicle: other 90 % of control | dose: 400.0 mg/kg/injection, schedule: Q01DX001 (ip), vehicle: other 102 % of control

Cc1ccc(S(=O)(=O)NC(=O)N(Cc2ccccc2)C(C)(C)C)cc1
inactive: [1] 107 % of control | [2] 100 % of control

O=N[O-].O=N[O-].O=N[O-].O=N[O-].O=N[O-].O=N[O-].[Ni]
inactive: dose: 25.0 mg/kg/injection, schedule: Q04DX002 (ip), vehicle: saline 106 % of control | dose: 50.0 mg/kg/injection, schedule: Q04DX002 (ip), vehicle: saline 113 % of control | dose: 100.0 mg/kg/injection, schedule: Q04DX002 (ip), vehicle: saline 106 % of control

Cc1ccc(Cl)c(NC(=O)Nc2cccc(C(F)(F)F)c2)c1
inactive: [3] 87 % of control | [4] 87 % of control | [5] 90 % of control

FC1C(F)(F)C(F)(F)C(F)(F)C(F)(F)C1(F)F
inactive: dose: 50.0 mg/kg/injection, schedule: Q01DX001 (ip), vehicle: carboxymethylcellulose (CMC) 97 % of control | [6] 97 % of control | [7] 107 % of control | [8] 96 % of control

OCCN1CC1
inactive: dose: 1.0 mg/kg/injection, schedule: Q01DX009 (ip), vehicle: saline 92 % of control | dose: 1.56 mg/kg/injection, schedule: Q01DX009 (ip), vehicle: saline 100 % of control | dose: 2.3 mg/kg/injection, schedule: Q01DX009 (ip), vehicle: saline 96 % of control | dose: 3.12 mg/kg/injection, schedule: Q01DX009 (ip), vehicle: saline 120 % of control | dose: 6.25 mg/kg/injection, schedule: Q01DX009 (ip), vehicle: saline 94 % of control

COc1cc2c(cc1OC)CC(=O)NC2
inactive: [9] 95 % of control | [10] 97 % of control | dose: 400.0 mg/kg/injection, schedule: Q04DX003 (ip), vehicle: saline 97 % of control

COc1ccccc1CN1CCCN(Cc2ccccc2OC)C1c1c(O)ccc2ccccc12
inactive: [6] 91 % of control | [7] 91 % of control | [8] 91 % of control

O=S(=O)(Nc1ccc(Br)cc1)c1ccccc1
inactive: [11] 99 % of control | [12] 105 % of control | [13] 87 % of control | [14] 100 % of control | [15] 95 % of control | [16] 98 % of control

O=S(=O)(C(Cl)(Cl)Cl)C(Cl)(Cl)Cl
inactive: [1] 95 % of control | [2] 98 % of control | [3] 93 % of control

CCCCC[n+]1ccc(C(N)=O)cc1
inactive: [9] 105 % of control | [10] 100 % of control

O=C(COc1ccc(F)cc1)N(CCO)CCO
inactive: dose: 100.0 mg/kg/injection, schedule: Q04DX002 (ip), vehicle: Klucel (hydroxypropylcellulose) (HPC) 96 % of control | dose: 200.0 mg/kg/injection, schedule: Q04DX002 (ip), vehicle: Klucel (hydroxypropylcellulose) (HPC) 92 % of control | dose: 400.0 mg/kg/injection, schedule: Q04DX002 (ip), vehicle: Klucel (hydroxypropylcellulose) (HPC) 114 % of control

O=C1OC(c2ccccc2)=N/C1=C1\OC(=O)c2ccccc21
inactive: [2] 92 % of control | [3] 86 % of control | [4] 92 % of control | [5] 89 % of control

CON(C)S(=O)(=O)c1ccccc1
inactive: dose: 100.0 mg/kg/injection, schedule: Q04DX003 (ip), vehicle: Klucel (hydroxypropylcellulose) (HPC) 103 % of control | dose: 200.0 mg/kg/injection, schedule: Q04DX003 (ip), vehicle: Klucel (hydroxypropylcellulose) (HPC) 97 % of control | dose: 400.0 mg/kg/injection, schedule: Q04DX003 (ip), vehicle: Klucel (hydroxypropylcellulose) (HPC) 95 % of control

COc1c2ccccc2nc2ccccc12
inactive: [12] 93 % of control | [14] 91 % of control | [16] 95 % of control

O=C(NCc1cnccn1)OCC(Cl)(Cl)Cl
inactive: [11] 97 % of control | [13] 106 % of control | [15] 103 % of control

CNC(=O)Nc1nc2ccc([N+](=O)[O-])cc2[nH]1
inactive: dose: 100.0 mg/kg/injection, schedule: Q01DX001 (ip), vehicle: saline 105 % of control | dose: 200.0 mg/kg/injection, schedule: Q01DX001 (ip), vehicle: saline 103 % of control | dose: 400.0 mg/kg/injection, schedule: Q01DX001 (ip), vehicle: saline 97 % of control

[I][Hg][CH2]C1COCC([CH2][Hg][I])O1.[I][Hg][CH2]C1COCC([CH2][Hg][I])O1 (configuration not stated)
inactive: dose: 20.0 mg/kg/injection, schedule: Q04DX003 (ip), vehicle: carboxymethylcellulose (CMC) 100 % of control | dose: 40.0 mg/kg/injection, schedule: Q01DX001 (ip), vehicle: carboxymethylcellulose (CMC) 91 % of control | dose: 40.0 mg/kg/injection, schedule: Q04DX003 (ip), vehicle: carboxymethylcellulose (CMC) 105 % of control | dose: 80.0 mg/kg/injection, schedule: Q01DX001 (ip), vehicle: carboxymethylcellulose (CMC) 93 % of control

CCCCCCCCCCC(O)CN1CCN(c2ccc(C)cc2)CC1 (configuration not stated)
inactive: dose: 12.5 mg/kg/injection, schedule: Q01DX009 (ip), vehicle: Klucel (hydroxypropylcellulose) (HPC) 90 % of control | [1] 90 % of control | [2] 89 % of control | [3] 94 % of control | [4] 101 % of control

OC(CNc1ccccc1)CN1CCCCC1 (configuration not stated)
inactive: [9] 94 % of control

O=C1C[C@H]2[C@H](CO)[C@@H](OC(=O)c3ccc(-c4ccccc4)cc3)C[C@H]2O1
inactive: dose: 12.5 mg/kg/injection, schedule: Q01DX009 (ip), vehicle: alcohol 103 % of control | dose: 25.0 mg/kg/injection, schedule: Q01DX009 (ip), vehicle: alcohol 101 % of control | dose: 50.0 mg/kg/injection, schedule: Q01DX009 (ip), vehicle: alcohol 98 % of control

CCCCCCCCCCCCCCCCCC(=O)Oc1ccc(OCc2ccccc2)cc1
inactive: [3] 105 % of control | [4] 95 % of control | [5] 97 % of control

C[n+]1ccc(/C=C/c2ccc(O)c3ccccc23)cc1
inactive: dose: 75.0 mg/kg/injection, schedule: Q01DX001 (ip), vehicle: saline 100 % of control | dose: 150.0 mg/kg/injection, schedule: Q01DX001 (ip), vehicle: saline 101 % of control

N#CCC(=O)NCc1ccncc1
inactive: [6] 95 % of control | dose: 100.0 mg/kg/injection, schedule: Q04DX003 (ip), vehicle: carboxymethylcellulose (CMC) 95 % of control | [7] 106 % of control | dose: 200.0 mg/kg/injection, schedule: Q04DX003 (ip), vehicle: carboxymethylcellulose (CMC) 96 % of control | [8] 108 % of control | dose: 400.0 mg/kg/injection, schedule: Q04DX003 (ip), vehicle: carboxymethylcellulose (CMC) 91 % of control
